Experiments:
Histoplasma duboisii = conditions: expected efficacy against Histoplasma duboisii
Sporothrix schenckii = experiment: Expected efficacy of antifungal agents; conditions: expected efficacy against Sporothrix schenckii
Blastomyces dermatitidis = experiment: Expected efficacy of antifungal agents; conditions: expected efficacy against Blastomyces dermatitidis
Aspergillus fumigatus = experiment: Expected efficacy of antifungal agents; conditions: expected efficacy against Aspergillus fumigatus
Trichophyton rubrum = experiment: Expected efficacy of antifungal agents; conditions: expected efficacy against Trichophyton rubrum
Cryptococcus neoformans = experiment: Expected efficacy of antifungal agents; conditions: expected efficacy against Cryptococcus neoformans
Aspergillus flavus = experiment: Expected efficacy of antifungal agents; conditions: expected efficacy against Aspergillus flavus
[1] = test system: Paracoccidioides brasiliensis; experiment: Expected efficacy of antifungal agents; conditions: expected efficacy against Paracoccidioides brasiliensis
Candida species = experiment: Expected efficacy of antifungal agents; conditions: expected efficacy against Candida species
Coccidioides immitis = conditions: expected efficacy against Coccidioides immitis
[2] = test system: Trichophyton mentagrophytes; experiment: Expected efficacy of antifungal agents; conditions: expected efficacy against Trichophyton mentagrophytes

Measured: Efficacy

CCC(C)n1ncn(-c2ccc(N3CCN(c4ccc(OC[C@H]5CO[C@](Cn6cncn6)(c6ccc(Cl)cc6Cl)O5)cc4)CC3)cc2)c1=O (mixture of isomers) [Itraconazole]
yes: all assays above

From US20170173002A1, “Compositions and Methods for Treating an Infection” (CMPD LICENSING, LLC, priority 2015, published 2017)
